In article PMC3988029, “A Trisubstituted Benzimidazole Cell Division Inhibitor with Efficacy against Mycobacterium tuberculosis” (PLoS ONE, 2014):
≈ marks a conversion by molar mass, not a printed value.

Key:
[1] = system: M. tuberculosis; type: cell-based; conditions: for Enhancement of activity against M. tuberculosis in the presence of the partner drug: checkerboard, SB-P17G-A20 with rifampicin
[2] = system: M. tuberculosis clinical isolates; experiment: microbe, parasite or virus in culture; type: cell-based; conditions: Mycobacterium tuberculosis, read-out: MIC against different clinical strains of M. tuberculosis
[3] = system: M. tuberculosis H37Rv; type: cell-based, Mycobacterium tuberculosis; conditions: 2×10^9 cells plated on 1.6 µg/mL, 10 times MIC

| SMILES | Enhancement of activity against M. tuberculosis in the presence of the partner drug [1] | ΣFIC ([1]; rifampicin in combination with SB-P17G-A20) | MIC [2] [µg/mL] | Spontaneous resistant mutants [3] |
| --- | --- | --- | --- | --- |
| CN(C)c1cc2[nH]c(C3CCCCC3)nc2cc1NC(=O)c1ccc(OC(F)(F)F)cc1 [SB-P17G-A20] | 2–4 fold | 0.75 | 0.16 (≈ 0.358 µM) | no single resistant colony was obtained |
| CO[C@H]1/C=C/O[C@@]2(C)Oc3c(C)c(O)c4c(O)c(c(/C=N/N5CCN(C)CC5)c(O)c4c3C2=O)NC(=O)/C(C)=C\C=C\[C@H](C)[C@H](O)[C@@H](C)[C@@H](O)[C@@H](C)[C@H](OC(C)=O)[C@@H]1C [rifampicin, reference compound] | 2 fold |  |  |  |
